In patent US20030171544A1, “Alcohol dehydrogenase and use thereof” (DEGUSSA AG, priority 2001, published 2003):
Marks after values point to notes of the source that are not given here.

System: alcohol dehydrogenase (ADHF1)
Experiment: Reduction of ketones with lyophilized recombinant ADHF1 crude extract, GC analysis
Format: biochemical, Pseudomonas fluorescens (DSM 50106)
Details: for Conversion: Table 1, GC analysis, 6.4 μmol substrate, 1.25 mg enzyme crude extract, 0.1 M Tris pH 8.0, 20% (v/v) isopropanol, room temperature, time 20-21 h
Description: The activity of lyophilized alcohol dehydrogenase is determined using acetophenone as model substrate. The standardized reaction mixture (250 μl) contains 6.4 μmol of substrate dissolved in isopropanol, 1.25 mg of enzyme (crude extract) in 0.1 M Tris buffer (pH 8.0) and 20% (v/v) isopropanol as substrate for NADH-recycling dehydrogenase. The reactions are carried out at room temperature, unless explicitly stated otherwise. All values were determined three times. After the reaction has finished, the reaction mixture is extracted with twice the amount of chloroform and the organic phase is then dried over sodium sulfate. The reaction products were analyzed isothermally at 120° C. by GC measurements (Shimadzu GC 14A, Tokyo, flame ionization detector, integrator C5RA) using a chiral column (heptakis (2,6-O-methyl-3-O-pentyl)-β-cyclodextrin, 25m×0.25mm ID, Macherey & Nagel, Düren). The retention times are 1.55 min for acetophenone, 2.77 min for (R)-α-phenylethanol and 2.99 min for (S)-α-phenylethanol. The absolute configuration was determined by using commercial standards. Further GC analyses were carried out at a temperature rising from 90° C. to 120° C. at a rate of 5° C./min. Here the retention times were 0.95 min for cyclopentanone, 1.37 min for cyclopentanol, 2.85 min for cycloheptanone, 4.29 min for cycloheptanol, 1.42 min for cyclohexanone and 2.12 min for cyclohexanol.

SMILES	Conversion	yield of (R)-α-phenylethanol (conversion of acetophenone by ADHF1) [%]
O=C1CCCCCC1 [Cycloheptanone]	51%	
O=C1CCCCC1 [Cyclohexanone]	100%	
O=C1CCCC1 [Cyclopentanone]	53%	
CC(=O)c1ccccc1 [Substrate 1, acetophenone]	95^b %	95
